# “And” between values parts separate entries of the source, which are not always exact repeats. Identical values can stand only once.
# What was measured:
# Assay type in all cases: functional
# Candida [1] = assay: Inhibitory activity against Candida. species. (40 clinical isolates), determined at pH-5.8
# Candida [2] = assay: Resistance against all Candida. species (40 clinical isolates) at 256 micro g/mL (pH=5.8). Activity is expressed as R%.
# Candida albicans [3] = assay: 50% inhibitory activity against Candida albicans (40 clinical isolates) determined at pH-5.8
# Candida albicans [4] = assay: Inhibitory activity against Candida albicans (40 clinical isolates), determined at pH-5.8
# Candida [5] = assay: 50% inhibitory activity against the Candida. species (40 clinical isolates) was determined at pH-7.2
# Candida [6] = assay: Inhibitory activity against Candida. species. (40 clinical isolates), determined at pH-7.2
# Candida [7] = assay: Percent resistance against all Candida. species (40 clinical isolates) at 256 micro g/mL (pH=7.2), activity is expressed as R%.
# Candida albicans [8] = assay: 50% inhibitory activity against Candida albicans (40 clinical isolates) determined at pH-7.2; conditions: Candida albicans; read-out: MIC50
# Candida albicans [9] = assay: Percent resistance against Candida albicans (40 clinical isolates) at 256 micro g/mL (pH=5.8), activity is expressed as R%.
# Candida albicans [10] = assay: Inhibitory activity against the Candida albicans (40 clinical isolates), determined at pH-7.2
# Candida [11] = assay: 90% inhibitory activity against Candida. species (40 clinical isolates) determined at pH-7.2
# Candida [12] = assay: Inhibitory activity against Candida. species (40 clinical isolates), determined at pH-5.8
# Candida albicans [13] = assay: Inhibitory activity against Candida albicans (40 clinical isolates), determined at pH-7.2
# Candida albicans [14] = assay: Resistance against Candida. albicans (40 clinical isolates) at 256 ug/mL (pH=7.2), activity is expressed as R%.
# Candida albicans [15] = assay: Inhibitory activity against the Candida albicans (40 clinical isolates), determined at pH-5.8
# Candida [16] = assay: 90% inhibitory activity against the Candida. species (40 clinical isolates) was determined at pH-7.2
# Candida albicans [17] = assay: The compound was tested for percent resistance against Candida. albicans (40 clinical isolates) at 256 micro g/mL (pH=7.2), activity is expressed as R%.
# Oryctolagus cuniculus = assay: Topical comparison with bifonazole in white male rabbits at 1% concentration of compound
SMILES,MIC (Candida [1]) [µg/mL],R (Candida [2]) [%],MIC50 (Candida albicans [3]) [µg/mL],MIC (Candida albicans [4]) [µg/mL],MIC50 (Candida [5]) [µg/mL],MIC (Candida [6]) [µg/mL],R (Candida [7]) [%],MIC50 (Candida albicans [8]) [µg/mL],R (Candida albicans [9]) [%],MIC90 (Candida albicans [10]) [µg/mL],MIC90 (Candida [11]) [µg/mL],MIC50 (Candida [12]) [µg/mL],MIC90 (Candida [12]) [µg/mL],MIC (Candida albicans [13]) [µg/mL],R (Candida albicans [14]) [%],MIC90 (Candida albicans [15]) [µg/mL],MIC90 (Candida [16]) [µg/mL],R (Candida albicans [17]) [%],Percentage of animals (Oryctolagus cuniculus)
Fc1ccc(C(c2c[nH]cc2-c2ccc(Cl)cc2)n2ccnc2)cc1 (stereo not drawn),26.6,0,32,15.4,32,31.8,0,16,0,32,64,32,32,19.2,0,64,–,–,–
Nc1ccc(C(c2c[nH]cc2-c2ccccc2)n2ccnc2)cc1 (stereo not drawn),> 327,80,128,142,256,> 331,80,128,0,128,–,256,> 256,162,0,256,> 256,–,–
O=[N+]([O-])c1ccc(C(c2c[nH]cc2-c2ccccc2Cl)n2ccnc2)cc1 (stereo not drawn),48.4,0,32,> 50.7,64,> 200,30,32,0,256,> 256,64,64,> 91.6,15,64,–,–,–
Fc1ccc(C(c2c[nH]cc2-c2ccc(Cl)cc2Cl)n2ccnc2)cc1 (stereo not drawn),21.5,0,2,7.8,16,20.9,0,8,0,32,32,16,32,10.4,0,32,–,–,–
Clc1ccc(C(c2c[nH]cc2-c2ccccc2)n2ccnc2)cc1 (stereo not drawn),51.4,0,–,47.3,32,40,0,–,0,128,–,64,64,21.3,0,64,128,–,–
Clc1ccc(-c2c[nH]cc2C(c2ccc(Cl)c(Cl)c2)n2ccnc2)cc1 (stereo not drawn),32.2,0,4,14.4,64,91.3,10,2,0,64,64,32,64,19.3,0,64,–,–,–
Clc1ccc(C(c2c[nH]cc2-c2ccc(Cl)c(Cl)c2)n2ccnc2)cc1 (stereo not drawn),30.2,0,4,8.9,32,39.2,0,4,0,16,64,32,64,9.6,0,16,–,–,–
c1ccc(-c2ccc(C(c3ccccc3)n3ccnc3)cc2)cc1 (stereo not drawn) [BIFONAZOLE],7.5,0,4,3.72,4,4.5,0,4,0,16,–,8,8,4.1,–,16,16,0,3% and 6% and 10%
Clc1ccc(COC(Cn2ccnc2)c2ccc(Cl)cc2Cl)c(Cl)c1 (stereo not drawn) [MICONAZOLE],13,0,0.5,5.9,16,13,0,2,0,32,32,2,32,6.1,0,32,–,–,–
